Columns and labels:
Assay type in all cases: in vivo
[1] = tested on: vetch aphid (Megoura viciae); experiment: Test 7 vetch aphid, leaf disks (mixtures)
Description: For evaluating control of vetch aphid (Megoura viciae) through contact or systemic means the test unit consisted of 24-well-microtiter plates containing broad bean leaf disks.
The compounds or mixtures were formulated using a solution containing 75% water and 25% DMSO. Concentrations of formulated compounds or mixtures were sprayed onto the leaf disks at 2.5 μl, using a custom built micro atomizer, at two replications.
(§1) For experimental mixtures in these tests identical volumes of both mixing partners at the desired concentrations respectively, were mixed together.
After application, the leaf disks were air-dried and 5-8 adult aphids placed on the leaf disks inside the microtiter plate wells. The aphids were then allowed to suck on the treated leaf disks and incubated at 23±1° C., 50±5% RH for 5 days. Aphid mortality and fecundity was then visually assessed.

[2] = tested on: tobacco budworm (Heliothis virescens); experiment: Test 10 tobacco budworm, insect diet with eggs (mixtures)
Description: For evaluating control of tobacco budworm (Heliothis virescens) the test unit consisted of 96-well-microtiter plates containing an insect diet and 15-25 H. virescens eggs.
The compounds or mixtures were formulated using a solution containing 75% water and 25% DMSO. Different concentrations of formulated compounds or mixtures were sprayed onto the insect diet at 10 μl, using a custom built micro atomizer, at two replications.
as §1
After application, microtiter plates were incubated at 28±1° C., 80±5% RH for 5 days. Egg and larval mortality was then visually assessed.

[3] = tested on: Greenhouse Whitefly (Trialeurodes vaporariorum); experiment: Greenhouse Whitefly, egg plant leaf disk (table 5, mixtures); conditions: solo application I-R-1, use rate 2 ppm
Description: For evaluating control of Greenhouse Whitefly (Trialeurodes vaporariorum) the test unit consisted of 96-well-microtiter plates containing a leaf disk of egg plant leaf disk with white fly eggs. The compounds or mixtures were formulated using a solution containing 75% water and 25% DMSO. Concentrations of formulated compounds or mixtures were sprayed onto the […] at 2.5 μl, using a custom built micro atomizer, at two replications.
as §1
After application, microtiter plates were incubated at 23±1° C., 65±5% RH for 6 days. Mortality of hatched crawlers was then visually assessed.

[4] = tested on: brown planthopper (Nilaparvata lugens); experiment: Test 6 brown planthopper, foliar spray (mixtures); conditions: solo application I-R-1, use rate 5 ppm
Description: For evaluating control of brown planthopper (Nilaparvata lugens) by foliar spray method. Clean potted rice seedlings with upper leaf portion cut are properly labeled. Placed three potted rice plants per treatment concentration/combination on top of the rotating disc (270 mm) and sprayed with the 12 mL spray solution. Treated plants are allowed to air-dry in the laboratory for about an hour. After air-drying, covered each treated rice plant. Each treated plant was infested with brown planthoppers using a suction vacuum. Plants are maintained at 27° C.±1° C., 50±5% RH and 24 hours light conditions in a holding room. Percent mortality is recorded 7 days after infestation by counting both the dead and alive brown planthoppers on the plants and on the water.

Chilo suppressalis = experiment: B.3c Rice striped stem borer, drench application; conditions: Chilo suppressalis neonates, Dose 10 mg, 14 DAT
From the text: The test solution was poured onto the soil of each potted rice plant (=replicate) with five tillers each pot. After drench application, treated plants were transferred inside the screenhouse for three days prior to stemborer inoculation inside the laboratory. Three days after drench application, 5 to 6-day old egg masses of CHILSU were used for inoculation. All stemborer-infested potted rice plants were transferred inside the screenhouse 1 day after inoculation until the final assessment. […] Whole plant damage was assessed before cutting each hill at the basal portion for tiller dissection. Each dissected tiller was inspected looking for dead (if possible) and alive stemborer larvae.

[5] = tested on: green peach aphid (Myzus persicae); experiment: Test 8 green peach aphid, artificial diet (mixtures)
From the text: For evaluating control of green peach aphid (Myzus persicae) through systemic means the test unit consisted of 96-well-microtiter plates containing liquid artificial diet under an artificial membrane.
The compounds or mixtures were formulated using a solution containing 75% water and 25% DMSO. Concentrations of formulated compounds or mixtures were pipetted into the aphid diet, using a custom built pipetter, at two replications.
as §1
After application, 5-8 adult aphids were placed on the artificial membrane inside the microtiter plate wells. The aphids were then allowed to suck on the treated aphid diet and incubated at 23±1° C., 50±5% RH for 3 days. Aphid mortality and fecundity was then visually assessed.

[6] = tested on: boll weevil (Anthonomus grandis); experiment: Test 3 boll weevil, insect diet with eggs (mixtures)
Description: (§2) For evaluating control of boll weevil (Anthonomus grandis) the test unit consisted of 24-well-microtiter plates containing an insect diet and 20-30 A. grandis eggs.
(§3) The compounds or mixtures were formulated using a solution containing 75% water and 25% DMSO. Concentrations of formulated compounds or mixtures were sprayed onto the insect diet at 20 μl, using a custom built micro atomizer, at two replications.
as §1
(§4) After application, microtiter plates were incubated at 23±1° C., 50±5% RH for 5 days. Egg and larval mortality was then visually assessed.

[7] = tested on: Rice green leafhopper (Nephotettix virescens); experiment: B.1 Rice green leafhopper, sprayed rice seedlings; conditions: 72 h
Description: B.1 Rice Green Leafhopper (Nephotettix virescens):
Rice seedlings are cleaned and washed 24 hours before spraying. The active compounds are formulated in 50:50 acetone:water (vol:vol), and 0.1% vol/vol surfactant (EL 620) is added. Potted rice seedlings are sprayed with 5 ml test solution, air dried, placed in cages and inoculated with 10 adults. Treated rice plants are kept at about 28-29° C. and relative humidity of about 50-60%. Percent mortality is recorded after 72 hours.

[8] = tested on: boll weevil (Anthonomus grandis); experiment: Test 9 boll weevil, insect diet with eggs (mixtures)
Description: as §2, §3, §1, §4

[9] = tested on: yellow fever mosquito (Aedes aegypti); conditions: Table 12; Yellow Fever Mosquito; solo application I-R-1, use rate 10 ppm
Description: For evaluating control of yellow fever mosquito (Aedes aegypti) the test unit consisted of 96-well-microtiter plates containing 200 μl of tap water per well and 5-15 freshly hatched A. aegypti larvae.
The compounds or mixtures were formulated using a solution containing 75% water and 25% DMSO. Different concentrations of formulated compounds or mixtures were sprayed onto the insect diet at 2.5 μl, using a custom built micro atomizer, at two replications.
as §1
After application, microtiter plates were incubated at 28±1° C., 80±5% RH for 2 days. Larval mortality was then visually assessed.

What does the source list for `C[n+]1c([O-])c(-c2ccccc2)c(=O)n2c1SC[C@@H]2c1cnc(Cl)s1` [I-R-1, (3R)-3-(2-chlorothiazol-5-yl)-8-methyl-7-oxo-6-phenyl-2,3-dihydrothiazolo[3,2-a]pyrimidin-4-ium-5-olate]?
Average control % ([1]; Table 7.1, solo application I-R-1, use rate 2 ppm): 25%; Average control % ([1]; Table 7.2, solo application I-R-1, use rate 2 ppm): 25%; Average control % ([2]; Table 10.1, solo application I-R-1, use rate 10 ppm): 0%; Average control % ([2]; Table 10.2, solo application I-R-1, use rate 10 ppm): 25%; Average control % [3]: 0%; Average control % ([4]; Table 6.1, after 7 days): 62%; Average control % ([4]; Table 6.2, after 7 days): 62%; Feeding damage (%) (Chilo suppressalis): 7%; Average control % ([5]; Table 8.1, solo application I-R-1, use rate 0.4 ppm): 0%; Average control % ([5]; Table 8.2, solo application I-R-1, use rate 0.4 ppm): 0%; Average control % ([6]; Table 3.1, solo application I-R-1, use rate 50 ppm): 0%; Average control % ([6]; Table 3.2, solo application I-R-1, use rate 2 ppm): 0%; Average control % ([6]; Table 3.3, solo application I-R-1, use rate 2 ppm): 0%; mortality at 1 ppm [7]: 100%; Average control % ([8]; Table 9.1, solo application I-R-1, use rate 50 ppm): 25%; Average control % ([8]; Table 9.2, solo application I-R-1, use rate 10 ppm): 25%; Average control % [9]: 0%

Reference: US11578083B2, “Pyrimidinium compounds and their mixtures for combating animal pests” (BASF SE, priority 2017, dated 2023)
